This is an account of results in article PMC4457528, “Identification of Novel Small Molecule Inhibitors of Oncogenic RET Kinase” (PLoS ONE, 2015).

Common to all, as to test: KinomeScan kinase panel, single concentration 10 µM
Format in all cases: binding

The target of assay [1] is T1, KinomeScan kinase panel (Homo sapiens, UniProt Q9P2K8, S808G).
T1 construct: purchased DiscoveRx (KinomeScan)
The conditions noted are these: GCN2(Kin.Dom.2.S808G), 10 µM; read-out: score (%).

Assay [2] addresses T2, KinomeScan kinase panel (Homo sapiens, UniProt P49137).
T2 construct: purchased DiscoveRx (KinomeScan)
Conditions: MAPKAPK2, 10 µM; read-out: score (%).

The target of assay [3] is T3, KinomeScan kinase panel (Homo sapiens, UniProt Q96SB4).
T3 construct: purchased DiscoveRx (KinomeScan)
The conditions noted are these: read-out: score (%).

The target in assay [4] is T4, KinomeScan kinase panel (Homo sapiens, UniProt Q9UEE5).
T4 construct: purchased DiscoveRx (KinomeScan)
T4 sequence (Q9UEE5 1-414): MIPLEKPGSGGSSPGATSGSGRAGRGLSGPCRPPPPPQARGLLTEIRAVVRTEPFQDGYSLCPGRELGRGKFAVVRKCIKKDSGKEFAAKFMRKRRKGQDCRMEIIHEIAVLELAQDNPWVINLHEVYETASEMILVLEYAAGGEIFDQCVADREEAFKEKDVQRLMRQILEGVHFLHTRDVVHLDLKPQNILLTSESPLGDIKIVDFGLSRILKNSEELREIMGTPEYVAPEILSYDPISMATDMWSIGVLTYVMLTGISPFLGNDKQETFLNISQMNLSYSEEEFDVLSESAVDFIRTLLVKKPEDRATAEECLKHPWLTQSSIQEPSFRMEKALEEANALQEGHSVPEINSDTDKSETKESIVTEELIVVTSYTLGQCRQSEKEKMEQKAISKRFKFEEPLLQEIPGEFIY
Conditions: DRAK1, 10 µM; read-out: score (%).

Assay [5] deals with T5, KinomeScan kinase panel (Homo sapiens, UniProt O00444).
T5 construct: purchased DiscoveRx (KinomeScan)
T5 sequence (O00444 1-970): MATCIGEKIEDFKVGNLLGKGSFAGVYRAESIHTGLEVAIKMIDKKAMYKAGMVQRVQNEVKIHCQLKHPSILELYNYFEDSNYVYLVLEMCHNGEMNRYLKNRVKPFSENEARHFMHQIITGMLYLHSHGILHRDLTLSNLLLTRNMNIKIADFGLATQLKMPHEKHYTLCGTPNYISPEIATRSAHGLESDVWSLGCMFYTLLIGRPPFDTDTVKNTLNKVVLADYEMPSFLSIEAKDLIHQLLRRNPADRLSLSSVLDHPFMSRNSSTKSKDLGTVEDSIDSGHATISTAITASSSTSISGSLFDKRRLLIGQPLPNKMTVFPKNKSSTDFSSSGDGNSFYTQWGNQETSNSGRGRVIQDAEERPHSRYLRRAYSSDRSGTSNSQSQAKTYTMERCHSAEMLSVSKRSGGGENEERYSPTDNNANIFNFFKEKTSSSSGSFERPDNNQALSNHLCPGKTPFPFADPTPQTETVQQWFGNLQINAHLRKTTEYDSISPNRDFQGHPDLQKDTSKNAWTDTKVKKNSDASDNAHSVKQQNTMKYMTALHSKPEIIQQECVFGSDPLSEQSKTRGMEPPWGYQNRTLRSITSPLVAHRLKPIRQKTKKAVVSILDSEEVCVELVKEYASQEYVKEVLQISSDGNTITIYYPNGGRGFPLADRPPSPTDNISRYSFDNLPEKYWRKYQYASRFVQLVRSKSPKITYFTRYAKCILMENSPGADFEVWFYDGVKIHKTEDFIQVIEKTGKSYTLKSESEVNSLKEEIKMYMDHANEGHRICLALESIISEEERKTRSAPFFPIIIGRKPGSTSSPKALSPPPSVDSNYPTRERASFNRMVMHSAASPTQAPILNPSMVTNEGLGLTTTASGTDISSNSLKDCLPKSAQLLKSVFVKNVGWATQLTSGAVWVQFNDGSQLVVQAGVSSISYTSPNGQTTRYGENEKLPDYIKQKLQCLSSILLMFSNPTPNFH
Conditions: read-out: score (%).

For assay [6], the target named is T6, KinomeScan kinase panel (Homo sapiens, UniProt O14976).
T6 construct: purchased DiscoveRx (KinomeScan)
T6 sequence (O14976 1-1311): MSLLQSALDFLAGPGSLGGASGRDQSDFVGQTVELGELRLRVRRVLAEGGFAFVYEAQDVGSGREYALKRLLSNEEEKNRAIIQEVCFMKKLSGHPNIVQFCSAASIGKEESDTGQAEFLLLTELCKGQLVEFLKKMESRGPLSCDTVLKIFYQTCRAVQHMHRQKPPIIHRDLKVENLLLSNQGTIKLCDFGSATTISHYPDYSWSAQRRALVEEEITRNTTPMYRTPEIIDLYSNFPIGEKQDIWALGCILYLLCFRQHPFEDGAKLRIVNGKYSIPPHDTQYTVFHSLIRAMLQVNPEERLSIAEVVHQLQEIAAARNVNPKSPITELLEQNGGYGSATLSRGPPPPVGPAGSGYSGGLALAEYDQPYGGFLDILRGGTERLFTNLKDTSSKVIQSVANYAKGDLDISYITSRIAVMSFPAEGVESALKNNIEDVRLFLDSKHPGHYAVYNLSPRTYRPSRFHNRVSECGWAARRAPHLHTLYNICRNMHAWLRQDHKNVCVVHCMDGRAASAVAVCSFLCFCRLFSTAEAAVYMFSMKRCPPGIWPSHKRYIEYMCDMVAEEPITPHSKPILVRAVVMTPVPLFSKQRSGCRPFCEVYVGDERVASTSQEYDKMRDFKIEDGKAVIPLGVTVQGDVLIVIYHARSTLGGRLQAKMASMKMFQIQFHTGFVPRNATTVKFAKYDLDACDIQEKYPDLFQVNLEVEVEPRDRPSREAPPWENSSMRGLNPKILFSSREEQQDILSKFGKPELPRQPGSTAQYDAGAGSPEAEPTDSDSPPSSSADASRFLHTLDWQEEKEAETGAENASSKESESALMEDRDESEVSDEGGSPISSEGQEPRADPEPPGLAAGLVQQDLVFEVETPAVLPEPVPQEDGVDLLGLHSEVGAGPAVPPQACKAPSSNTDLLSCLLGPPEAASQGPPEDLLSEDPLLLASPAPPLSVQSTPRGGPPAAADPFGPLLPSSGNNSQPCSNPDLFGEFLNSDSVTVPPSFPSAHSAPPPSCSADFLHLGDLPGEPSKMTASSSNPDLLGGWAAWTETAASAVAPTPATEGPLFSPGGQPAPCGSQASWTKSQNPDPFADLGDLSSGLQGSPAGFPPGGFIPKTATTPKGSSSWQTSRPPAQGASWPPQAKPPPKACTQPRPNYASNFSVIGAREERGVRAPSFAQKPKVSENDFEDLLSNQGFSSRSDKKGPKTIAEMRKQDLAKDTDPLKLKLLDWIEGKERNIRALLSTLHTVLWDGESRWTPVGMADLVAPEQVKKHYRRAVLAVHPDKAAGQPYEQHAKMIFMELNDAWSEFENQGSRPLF
Conditions: GAK, 10 µM; read-out: score (%).

Where two headings read alike, the source gives them in different places. Bounds are passed on as bounds.

T1 sequence (Q9P2K8 whole entry S808G): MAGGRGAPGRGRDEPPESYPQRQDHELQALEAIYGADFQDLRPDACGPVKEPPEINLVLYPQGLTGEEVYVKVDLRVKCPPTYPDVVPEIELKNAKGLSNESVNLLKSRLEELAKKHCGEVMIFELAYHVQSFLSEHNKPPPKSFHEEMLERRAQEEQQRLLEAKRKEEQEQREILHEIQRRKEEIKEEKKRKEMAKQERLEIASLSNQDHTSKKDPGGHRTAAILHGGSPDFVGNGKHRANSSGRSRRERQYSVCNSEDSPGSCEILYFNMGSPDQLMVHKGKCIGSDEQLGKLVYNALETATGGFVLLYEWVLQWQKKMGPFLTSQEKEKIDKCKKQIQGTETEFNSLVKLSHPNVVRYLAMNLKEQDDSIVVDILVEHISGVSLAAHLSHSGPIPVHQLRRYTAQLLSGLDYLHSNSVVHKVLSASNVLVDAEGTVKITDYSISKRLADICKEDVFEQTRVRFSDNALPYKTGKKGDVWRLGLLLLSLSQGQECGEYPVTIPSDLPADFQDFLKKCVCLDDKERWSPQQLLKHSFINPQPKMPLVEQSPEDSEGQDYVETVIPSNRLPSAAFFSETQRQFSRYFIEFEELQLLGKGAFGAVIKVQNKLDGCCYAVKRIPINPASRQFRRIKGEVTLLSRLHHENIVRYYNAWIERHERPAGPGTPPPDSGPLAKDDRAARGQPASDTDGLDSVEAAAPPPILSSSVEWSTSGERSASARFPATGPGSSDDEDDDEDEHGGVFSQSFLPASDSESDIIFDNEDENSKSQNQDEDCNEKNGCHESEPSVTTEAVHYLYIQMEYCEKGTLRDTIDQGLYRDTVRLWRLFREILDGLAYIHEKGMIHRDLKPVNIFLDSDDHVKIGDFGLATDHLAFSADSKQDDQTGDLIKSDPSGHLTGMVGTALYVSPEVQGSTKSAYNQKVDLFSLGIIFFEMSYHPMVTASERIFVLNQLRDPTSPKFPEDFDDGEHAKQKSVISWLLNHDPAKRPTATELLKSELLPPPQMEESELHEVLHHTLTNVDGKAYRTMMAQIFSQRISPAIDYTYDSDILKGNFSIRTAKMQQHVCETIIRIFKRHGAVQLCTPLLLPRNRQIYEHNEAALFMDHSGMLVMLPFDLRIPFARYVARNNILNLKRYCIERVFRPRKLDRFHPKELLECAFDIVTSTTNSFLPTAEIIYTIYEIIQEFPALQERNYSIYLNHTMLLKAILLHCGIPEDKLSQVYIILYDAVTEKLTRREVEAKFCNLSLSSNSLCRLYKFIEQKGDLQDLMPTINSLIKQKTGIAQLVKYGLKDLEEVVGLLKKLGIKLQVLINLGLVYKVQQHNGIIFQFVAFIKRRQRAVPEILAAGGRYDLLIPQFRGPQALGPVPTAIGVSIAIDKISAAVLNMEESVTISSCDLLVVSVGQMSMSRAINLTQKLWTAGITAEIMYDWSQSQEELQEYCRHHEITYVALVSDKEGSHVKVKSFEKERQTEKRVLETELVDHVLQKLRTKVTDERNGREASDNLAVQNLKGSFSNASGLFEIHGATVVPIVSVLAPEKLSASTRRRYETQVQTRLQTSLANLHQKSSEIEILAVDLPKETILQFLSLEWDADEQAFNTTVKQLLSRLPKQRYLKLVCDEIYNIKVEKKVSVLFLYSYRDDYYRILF
T3 sequence (Q96SB4 whole entry): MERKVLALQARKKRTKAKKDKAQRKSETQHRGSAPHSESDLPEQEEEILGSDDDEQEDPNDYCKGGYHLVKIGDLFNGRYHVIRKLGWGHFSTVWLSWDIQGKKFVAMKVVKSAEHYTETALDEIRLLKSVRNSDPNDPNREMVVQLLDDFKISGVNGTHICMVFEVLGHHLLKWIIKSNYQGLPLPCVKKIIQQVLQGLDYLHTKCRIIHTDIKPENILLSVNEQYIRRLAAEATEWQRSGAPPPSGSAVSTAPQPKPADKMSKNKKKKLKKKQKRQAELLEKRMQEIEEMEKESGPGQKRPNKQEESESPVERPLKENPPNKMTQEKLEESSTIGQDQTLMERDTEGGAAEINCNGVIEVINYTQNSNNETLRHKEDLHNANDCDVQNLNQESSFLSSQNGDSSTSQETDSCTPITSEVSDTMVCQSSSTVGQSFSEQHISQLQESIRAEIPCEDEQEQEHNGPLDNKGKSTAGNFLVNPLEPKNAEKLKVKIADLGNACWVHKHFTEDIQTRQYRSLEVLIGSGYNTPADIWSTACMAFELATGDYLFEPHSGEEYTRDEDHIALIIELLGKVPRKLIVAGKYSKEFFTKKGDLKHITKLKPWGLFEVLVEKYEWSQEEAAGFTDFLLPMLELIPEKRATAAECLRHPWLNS
T2 sequence (P49137 whole entry): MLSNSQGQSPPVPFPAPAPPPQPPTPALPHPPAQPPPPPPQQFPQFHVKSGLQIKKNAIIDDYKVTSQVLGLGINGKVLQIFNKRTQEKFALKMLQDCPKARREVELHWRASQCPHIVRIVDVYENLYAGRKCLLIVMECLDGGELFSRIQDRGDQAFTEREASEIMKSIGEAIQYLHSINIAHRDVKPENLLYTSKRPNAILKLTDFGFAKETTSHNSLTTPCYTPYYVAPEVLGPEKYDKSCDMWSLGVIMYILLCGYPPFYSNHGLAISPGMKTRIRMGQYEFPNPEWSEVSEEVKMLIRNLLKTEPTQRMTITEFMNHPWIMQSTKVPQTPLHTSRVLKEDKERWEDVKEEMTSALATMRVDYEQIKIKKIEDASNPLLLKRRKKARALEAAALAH

`CCN1CCN(Cc2ccc(NC(=O)c3ccc(C)c(NC(=O)c4cncc(-c5cccs5)c4)c3)cc2C(F)(F)F)CC1` [ALW-II-41-27]: the remaining binding at 10 µM in assay [1] is 0.3%; in assay [2], more than 30%; in assay [3] (kinase SRPK1, 10 µM), more than 30%; in assay [4] it was more than 30%; in assay [5] (PLK4, 10 µM) it was more than 30%; in assay [6], 1.6%.
With `CCN1CCN(Cc2ccc(NC(=O)c3ccc(C)c(/C=C/c4cnc5[nH]ccc5c4Cl)c3)cc2C(F)(F)F)CC1` [HG-6-63-01, (E)-3-(2-(4-chloro-1H-pyrrolo[2,3-b]pyridin-5-yl)vinyl)-N-(4-((4-ethylpiperazin-1-yl)methyl)-3-(trifluoromethyl)phenyl)-4-methylbenzamide], the remaining binding at 10 µM in assay [1] was 0.95%; in assay [2], more than 30%; in assay [3] (SRPK1, 10 µM), 0.25%; in assay [4], 0.35%; in assay [5] (PLK4, 10 µM) it was more than 30%; in assay [6], 4.3%.
On to `CCN1CCN(Cc2ccc(NC(=O)c3ccc(C)c(C#Cc4cccnc4)c3)cc2C(F)(F)F)CC1` [XMD15-44], for which the remaining binding at 10 µM in assay [1] is 1.3%; in assay [2] it was more than 30%; in assay [3] (kinase SRPK1, 10 µM), 100%; in assay [4], more than 30%; in assay [5] (kinase PLK4, 10 µM), 88%; in assay [6], 7.4%.
